Here are results for 19 compounds from US10160747B2, “Compounds and methods for kinase modulation, and indications therefor” (Plexxikon Inc., priority 2016, dated 2018).

One may read the IC50 as the concentration that inhibits the measured activity by half.

One test concerns the target T1, c-KIT (Homo sapiens, UniProt P10721).
T1 construct: purchased Millipore 14-559K
In words: c-KIT recombinant enzyme kinase assay (AlphaScreen). The test is classed as biochemical. The conditions noted are these: 100 ATP, 8 pt. How it is done:
(§1) In order to determine the effect of compounds on FLT3 catalytic activity, kinase assays using recombinant enzymes and AlphaScreen® technology have been established. The catalytic activity of c-kit activity was also measured to determine selectivity of the compounds. When the kinases are catalytically active, they phosphorylate a biotinylated peptide substrate on tyrosine residues. Using AlphaScreen® technology, the ability of the compounds to affect the catalytic activity of the kinases can be measured quantitatively. The peptide substrate is immobilized by the AlphaScreen® Streptavidin Donor beads and, upon phosphorylation by a tyrosine kinase, can bind to AlphaScreen® Anti-Phosphotyrosine (PY20) Acceptor beads. Upon excitation of these beads with laser light at 680 nm, singlet oxygen is produced. This singlet oxygen is rapidly quenched, unless the AlphaScreen® Anti-Phosphotyrosine (PY20) Acceptor beads are in close proximity, in which case a proximity signal can be measured at 580 nm. In the presence of catalytic activity, there is a very strong proximity signal. Selective kinase inhibitors affect a decrease in this proximity signal through a decrease in tyrosine phosphorylation of the peptide substrate.
(§2) The assay was performed as summarized below.
(§3) Poly (Glu4-Tyr) Peptide, biotin conjugate [Biotin-GG(EEEEY)10EE] (SEQ ID NO: 4)
(§4) Final concentration=30 nM
(§5) Adenosine Triphosphate (ATP)
(§6) Final concentration for IC50 determination=10 μM (FLT3-D835Y or FLT3-ITD) or 100 μM (c-KIT)
(§7) AlphaScreen® Phosphotyrosine (PY20) Assay Kit
(§8) Final concentration=10 μg/mL
(§9) Dilute compounds in DMSO to 20× final concentration.
(§10) Add 1 μL of compound to each well of 384 well reaction plate (Perkin Elmer #6005359).
(§11) Mix enzyme and Poly (Glu4-Tyr) Peptide substrate at 1.33× final concentration in assay buffer.
(§12) Mix ATP at 5× final concentration in assay buffer.
(§13) Add 15 μL enzyme/substrate mixture to the reaction plate.
(§14) Add 4 μL of ATP to the reaction plate.
(§15) Mix Streptavidin Donor beads at 6× final concentration in Stop/Detection buffer.
(§16) Add 5 μL Streptavidin Donor beads to the reaction plate. Centrifuge 1 minute, shake to mix, and incubate at room temperature for 20 minutes.
(§17) Mix Anti-Phosphotyrosine (PY20) Acceptor beads at 6× final concentration in Stop/Detection buffer.
(§18) Add 5 μL Anti-Phosphotyrosine (PY20) beads to the reaction plate.
(§19) Centrifuge 1 minute, shake to mix, and incubate at room temperature for 60 minutes.
(§20) Read plate on Wallac EnVision™ 2103 Multilabel Reader.
A general note: Alpha assays give light when donor and acceptor beads are brought close together.

In another test the target is T2, FLT3-D835Y (Homo sapiens, UniProt P36888, D835Y).
T2 construct: purchased Invitrogen PV3967
T2 sequence (P36888 27-993 D835Y): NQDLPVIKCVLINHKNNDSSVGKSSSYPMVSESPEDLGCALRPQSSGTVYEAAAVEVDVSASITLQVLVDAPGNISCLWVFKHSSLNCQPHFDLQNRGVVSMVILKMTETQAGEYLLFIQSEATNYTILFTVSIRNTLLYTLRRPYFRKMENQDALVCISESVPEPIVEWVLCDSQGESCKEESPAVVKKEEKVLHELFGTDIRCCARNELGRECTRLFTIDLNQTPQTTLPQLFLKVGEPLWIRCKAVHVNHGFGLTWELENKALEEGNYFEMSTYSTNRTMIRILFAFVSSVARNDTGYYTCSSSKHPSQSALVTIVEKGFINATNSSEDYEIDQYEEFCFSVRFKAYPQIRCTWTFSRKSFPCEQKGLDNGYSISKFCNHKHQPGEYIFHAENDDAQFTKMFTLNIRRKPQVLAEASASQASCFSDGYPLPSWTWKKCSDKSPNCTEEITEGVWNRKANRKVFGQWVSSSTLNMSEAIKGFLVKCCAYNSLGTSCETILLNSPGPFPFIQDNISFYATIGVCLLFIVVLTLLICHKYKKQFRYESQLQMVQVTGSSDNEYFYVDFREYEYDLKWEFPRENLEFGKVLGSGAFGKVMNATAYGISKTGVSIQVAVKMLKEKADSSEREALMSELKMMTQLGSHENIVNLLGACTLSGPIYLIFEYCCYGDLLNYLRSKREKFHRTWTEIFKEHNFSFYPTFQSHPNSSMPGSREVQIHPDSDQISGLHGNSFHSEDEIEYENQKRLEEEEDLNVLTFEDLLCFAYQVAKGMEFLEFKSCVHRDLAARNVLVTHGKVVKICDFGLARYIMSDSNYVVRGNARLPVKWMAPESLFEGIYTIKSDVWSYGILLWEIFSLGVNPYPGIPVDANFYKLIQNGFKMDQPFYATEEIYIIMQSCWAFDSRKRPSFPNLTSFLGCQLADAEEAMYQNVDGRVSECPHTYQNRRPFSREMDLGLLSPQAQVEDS
In words: FLT3-D835Y recombinant enzyme kinase assay (AlphaScreen). The test is classed as biochemical. To be noted: 8 pt, GMean. As to the method:
as §1, §2, §3, §4, §5, §6, §7, §8, §9, §10, §11, §12, §13, §14, §15, §16, §17, §18, §19, §20

T1 sequence (P10721 26-976): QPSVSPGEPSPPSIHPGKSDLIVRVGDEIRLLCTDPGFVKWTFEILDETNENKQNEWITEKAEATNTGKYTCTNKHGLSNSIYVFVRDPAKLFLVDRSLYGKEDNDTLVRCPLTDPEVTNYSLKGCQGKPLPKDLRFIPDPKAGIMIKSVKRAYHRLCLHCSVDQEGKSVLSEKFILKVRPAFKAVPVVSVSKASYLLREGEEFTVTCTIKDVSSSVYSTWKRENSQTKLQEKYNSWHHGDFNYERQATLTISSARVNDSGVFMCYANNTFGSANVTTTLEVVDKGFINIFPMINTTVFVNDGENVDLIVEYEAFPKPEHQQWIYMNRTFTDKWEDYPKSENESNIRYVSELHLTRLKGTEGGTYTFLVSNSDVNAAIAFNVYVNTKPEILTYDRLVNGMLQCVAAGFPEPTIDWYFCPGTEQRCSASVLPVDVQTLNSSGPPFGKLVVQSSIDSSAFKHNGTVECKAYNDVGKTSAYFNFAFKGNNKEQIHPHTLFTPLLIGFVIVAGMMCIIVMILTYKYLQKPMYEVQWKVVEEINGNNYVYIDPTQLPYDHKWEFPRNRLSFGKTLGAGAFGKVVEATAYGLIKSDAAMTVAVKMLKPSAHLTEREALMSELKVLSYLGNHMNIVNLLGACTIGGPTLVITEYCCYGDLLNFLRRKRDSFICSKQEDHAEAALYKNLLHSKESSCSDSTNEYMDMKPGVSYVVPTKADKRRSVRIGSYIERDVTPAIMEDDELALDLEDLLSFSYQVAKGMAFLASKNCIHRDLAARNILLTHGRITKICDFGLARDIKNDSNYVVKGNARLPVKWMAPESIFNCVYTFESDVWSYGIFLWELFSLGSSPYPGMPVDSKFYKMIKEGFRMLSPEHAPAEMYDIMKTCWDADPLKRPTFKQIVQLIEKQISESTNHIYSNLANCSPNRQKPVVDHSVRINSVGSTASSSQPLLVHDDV

As to `Cn1cc(Nc2ncc(-c3ccc(CC(=O)Nc4cnc(F)c(C(C)(F)F)c4)c(F)c3)cn2)cn1` [Compound P-0105, N-[5-(1,1-difluoroethyl)-6-fluoro-3-pyridyl]-2-[2-fluoro-4-[2-[(1-methylpyrazol-4-yl)amino]pyrimidin-5-yl]phenyl]acetamide], the IC50 at c-KIT and at FLT3-D835Y was 0.0001 to 10 µM in each case.

Take `Cc1ncc(NC(=O)Cc2ccc(-c3cnc(Nc4cnn(C)c4)nc3)cc2)cc1C(F)(F)F` [Compound P-0140, 2-[4-[2-[(1-methylpyrazol-4-yl)amino]pyrimidin-5-yl]phenyl]-N-[6-methyl-5-(trifluoromethyl)-3-pyridyl]acetamide]: the IC50 at c-KIT and at FLT3-D835Y was 0.0001 to 10 µM throughout.

As to `Cn1cc(Nc2ncc(-c3ccc(CC(=O)Nc4cnc(Cl)c(C(F)(F)F)c4)cc3)cn2)cn1` [Compound P-0145, N-[6-chloro-5-(trifluoromethyl)-3-pyridyl]-2-[4-[2-[(1-methylpyrazol-4-yl)amino]pyrimidin-5-yl]phenyl]acetamide], the IC50 on c-KIT and at FLT3-D835Y was 0.0001 to 10 µM throughout.

Turning to `CCn1cc(Nc2ncc(-c3ccc(CC(=O)Nc4cncc(C(F)(F)F)c4)cc3)cn2)cn1` [Compound P-0166, 2-[4-[2-[(1-ethylpyrazol-4-yl)amino]pyrimidin-5-yl]phenyl]-N-[5-(trifluoromethyl)-3-pyridyl]acetamide], the IC50 on c-KIT and at FLT3-D835Y was 0.0001 to 10 µM in each case.

Consider `COCCn1cc(Nc2ncc(-c3ccc(CC(=O)Nc4cnc(C)c(C(F)(F)F)c4)cc3)cn2)cn1` [Compound P-0179, 2-[4-[2-[[1-(2-methoxyethyl)pyrazol-4-yl]amino]pyrimidin-5-yl]phenyl]-N-[6-methyl-5-(trifluoromethyl)-3-pyridyl]acetamide], for which the IC50 on c-KIT and at FLT3-D835Y was 0.0001 to 10 µM each time.

As to `Cn1cc(Nc2ncc(-c3ccc(CC(=O)Nc4cc(Cl)c(C5CC5)cn4)c(F)c3)cn2)cn1` [Compound P-0107, N-(4-chloro-5-cyclopropyl-2-pyridyl)-2-[2-fluoro-4-[2-[(1-methylpyrazol-4-yl)amino]pyrimidin-5-yl]phenyl]acetamide], the IC50 at c-KIT and at FLT3-D835Y was 0.0001 to 10 µM in each case.

For `COc1ncc(NC(=O)Cc2ccc(-c3cnc4[nH]nc(C)c4c3)c(F)c2)cc1C(F)(F)F` [Compound P-0174, 2-[3-fluoro-4-(3-methyl-1H-pyrazolo[3,4-b]pyridin-5-yl)phenyl]-N-[6-methoxy-5-(trifluoromethyl)-3-pyridyl]acetamide], the IC50 at c-KIT and on FLT3-D835Y was 0.0001 to 10 µM throughout.

In the case of `Cn1cc(Nc2ncc(-c3ccc(CC(=O)Nc4ccnc(C(F)(F)F)n4)cc3)cn2)cn1` [Compound P-0137, 2-[4-[2-[(1-methylpyrazol-4-yl)amino]pyrimidin-5-yl]phenyl]-N-[2-(trifluoromethyl)pyrimidin-4-yl]acetamide], the IC50 at c-KIT and on FLT3-D835Y was 0.0001 to 10 µM in each case.

Turning to `Cn1cc(Nc2ncc(-c3ccc(CC(=O)Nc4ccnc(C5CC5)c4)c(F)c3)cn2)cn1` [Compound P-0098, N-(2-cyclopropyl-4-pyridyl)-2-[2-fluoro-4-[2-[(1-methylpyrazol-4-yl)amino]pyrimidin-5-yl]phenyl]acetamide], the IC50 on c-KIT and on FLT3-D835Y was 0.0001 to 10 µM in each case.

As to `Cn1cc(Nc2ncc(-c3ccc(CC(=O)Nc4ccc(C(F)(F)F)cn4)c(F)c3)cn2)cn1` [Compound P-0106, 2-[2-fluoro-4-[2-[(1-methylpyrazol-4-yl)amino]pyrimidin-5-yl]phenyl]-N-[5-(trifluoromethyl)-2-pyridyl]acetamide], the IC50 on c-KIT and on FLT3-D835Y was 0.0001 to 10 µM each time.

Regarding `Cn1cc(Nc2ncc(-c3ccc(CC(=O)Nc4cncc(C(C)(F)F)c4)cc3)cn2)cn1` [Compound P-0144, N-[5-(1,1-difluoroethyl)-3-pyridyl]-2-[4-[2-[(1-methylpyrazol-4-yl)amino]pyrimidin-5-yl]phenyl]acetamide], the IC50 on c-KIT and at FLT3-D835Y was 0.0001 to 10 µM in each case.

As for `COc1cncc(NC(=O)Cc2ccc(-c3cnc(Nc4cnn(C)c4)nc3)cc2)c1` [Compound P-0133, N-(5-methoxy-3-pyridyl)-2-[4-[2-[(1-methylpyrazol-4-yl)amino]pyrimidin-5-yl]phenyl]acetamide], the IC50 on c-KIT and at FLT3-D835Y was 0.0001 to 10 µM throughout.

In the case of `Cn1cc(Nc2ncc(-c3ccc(CC(=O)Nc4ccc(C(F)(F)F)cn4)cc3)cn2)cn1` [Compound P-0109, 2-[4-[2-[(1-methylpyrazol-4-yl)amino]pyrimidin-5-yl]phenyl]-N-[5-(trifluoromethyl)-2-pyridyl]acetamide], the IC50 on c-KIT and on FLT3-D835Y was 0.0001 to 10 µM throughout.

Take `CC(C)c1cc(NC(=O)Cc2ccc(-c3cnc(Nc4cnn(C)c4)nc3)cc2F)ccn1` [Compound P-0094, 2-[2-fluoro-4-[2-[(1-methylpyrazol-4-yl)amino]pyrimidin-5-yl]phenyl]-N-(2-isopropyl-4-pyridyl)acetamide]: the IC50 at c-KIT and at FLT3-D835Y was 0.0001 to 10 µM throughout.

With `Cc1ncc(NC(=O)Cc2cc(F)c(-c3cnc4[nH]nc(C)c4c3)cc2F)cc1C(F)(F)F` [Compound P-0175, 2-(2,5-difluoro-4-(3-methyl-1H-pyrazolo[3,4-b]pyridin-5-yl)phenyl)-N-(6-methyl-5-(trifluoromethyl)pyridin-3-yl)acetamide], the half-maximal inhibitory concentration (IC50) at c-KIT and at FLT3-D835Y was 0.0001 to 10 µM throughout.

Consider `Cn1cc(Nc2ncc(-c3ccc(CC(=O)Nc4ccc(C(C)(C)C#N)nc4)cc3)cn2)cn1` [Compound P-0146, N-[6-(1-cyano-1-methyl-ethyl)-3-pyridyl]-2-[4-[2-[(1-methylpyrazol-4-yl)amino]pyrimidin-5-yl]phenyl]acetamide], for which the IC50 on c-KIT and on FLT3-D835Y was 0.0001 to 10 µM throughout.

Turning to `N#Cc1ccc(-c2cc3cc(-c4ccc(CC(=O)Nc5cncc(C(F)(F)F)c5)cc4F)cnc3[nH]2)cn1` [Compound P-0195, 2-[4-[2-(6-cyano-3-pyridyl)-1H-pyrrolo[2,3-b]pyridin-5-yl]-3-fluoro-phenyl]-N-[5-(trifluoromethyl)-3-pyridyl]acetamide], the half-inhibitory concentration (IC50) on c-KIT and on FLT3-D835Y was 0.0001 to 10 µM throughout.

For `N#Cc1cc(-c2cc3cc(-c4ccc(CC(=O)Nc5ccnc(C(F)(F)F)c5)nc4)cnc3[nH]2)ccn1` [Compound P-0182, 2-[5-[2-(2-cyano-4-pyridyl)-1H-pyrrolo[2,3-b]pyridin-5-yl]-2-pyridyl]-N-[2-(trifluoromethyl)-4-pyridyl]acetamide], the IC50 at c-KIT and on FLT3-D835Y was 0.0001 to 10 µM each time.

As for `COc1ccc(-c2cc3cc(-c4ccc(CC(=O)Nc5cncc(C(F)(F)F)c5)cc4F)cnc3[nH]2)cn1` [Compound P-0196, 2-[3-fluoro-4-[2-(6-methoxy-3-pyridyl)-1H-pyrrolo[2,3-b]pyridin-5-yl]phenyl]-N-[5-(trifluoromethyl)-3-pyridyl]acetamide], the IC50 on c-KIT and on FLT3-D835Y was 0.0001 to 10 µM each time.
